Reference: PubChem BioAssay (NCI)
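Results reflect a 48-hour exposure of cells in 96-well plates to compound at five concentrations. TGI marks complete inhibition of growth.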

Tests used:
Experiment in all cases: inhibition of tumour cell growth, NCI panel, 48 h
786-0 renal = tested on: 786-0 renal
A549 NSCLC = tested on: A549 NSCLC
ACHN renal = tested on: ACHN renal
BT-549 breast = tested on: BT-549 breast
CAKI-1 renal = tested on: CAKI-1 renal
CCRF-CEM leukemia = tested on: CCRF-CEM leukemia
COLO 205 colon = tested on: COLO 205 colon
DU-145 prostate = tested on: DU-145 prostate
EKVX NSCLC = tested on: EKVX NSCLC
HCC-2998 colon = tested on: HCC-2998 colon
HCT-116 colon = tested on: HCT-116 colon
HCT-15 colon = tested on: HCT-15 colon
HL-60(TB) leukemia = tested on: HL-60(TB) leukemia
HOP-62 NSCLC = tested on: HOP-62 NSCLC
HS 578T breast = tested on: HS 578T breast
HT29 colon = tested on: HT29 colon
IGROV1 ovarian = tested on: IGROV1 ovarian
K-562 leukemia = tested on: K-562 leukemia
LOX IMVI melanoma = tested on: LOX IMVI melanoma
M14 melanoma = tested on: M14 melanoma
MALME-3M melanoma = tested on: MALME-3M melanoma
MCF7 breast = tested on: MCF7 breast
MDA-MB-231 breast = tested on: MDA-MB-231 breast
MDA-MB-435 = tested on: MDA-MB-435
MDA-N = tested on: MDA-N
MOLT-4 leukemia = tested on: MOLT-4 leukemia
NCI-H226 lung = tested on: NCI-H226 lung
NCI-H23 lung = tested on: NCI-H23 lung
NCI-H460 lung = tested on: NCI-H460 lung
NCI-H522 lung = tested on: NCI-H522 lung
NCI/ADR-RES ovarian = tested on: NCI/ADR-RES ovarian
OVCAR-3 ovarian = tested on: OVCAR-3 ovarian
OVCAR-4 ovarian = tested on: OVCAR-4 ovarian
OVCAR-5 ovarian = tested on: OVCAR-5 ovarian
OVCAR-8 ovarian = tested on: OVCAR-8 ovarian
PC-3 prostate = tested on: PC-3 prostate
RPMI-8226 leukemia = tested on: RPMI-8226 leukemia
RXF 393 renal = tested on: RXF 393 renal
SF-268 CNS = tested on: SF-268 CNS
SF-295 CNS = tested on: SF-295 CNS
SF-539 CNS = tested on: SF-539 CNS
SK-MEL-2 melanoma = tested on: SK-MEL-2 melanoma
SK-MEL-28 melanoma = tested on: SK-MEL-28 melanoma
SK-MEL-5 melanoma = tested on: SK-MEL-5 melanoma
SK-OV-3 ovarian = tested on: SK-OV-3 ovarian
SN12C renal = tested on: SN12C renal
SNB-19 CNS = tested on: SNB-19 CNS
SNB-75 CNS = tested on: SNB-75 CNS
SR leukemia = tested on: SR leukemia
SW-620 colon = tested on: SW-620 colon
T-47D breast = tested on: T-47D breast
TK-10 renal = tested on: TK-10 renal
UACC-257 melanoma = tested on: UACC-257 melanoma
UO-31 renal = tested on: UO-31 renal
HOP-92 NSCLC = tested on: HOP-92 NSCLC
KM12 colon = tested on: KM12 colon
U251 CNS = tested on: U251 CNS
UACC-62 melanoma = tested on: UACC-62 melanoma
A498 renal = tested on: A498 renal

CC(=O)NN(c1ccccc1)C1CCN(c2ccccc2)N1C(C)=O (stereo not drawn)
TGI (786-0 renal): > 10 µM | TGI (A549 NSCLC): > 10 µM | TGI (ACHN renal): > 10 µM | TGI (BT-549 breast): > 10 µM | TGI (CAKI-1 renal): > 10 µM | TGI (CCRF-CEM leukemia): > 10 µM | TGI (COLO 205 colon): > 10 µM | TGI (DU-145 prostate): > 10 µM | TGI (EKVX NSCLC): > 10 µM | TGI (HCC-2998 colon): > 10 µM | TGI (HCT-116 colon): > 10 µM | TGI (HCT-15 colon): > 10 µM | TGI (HL-60(TB) leukemia): > 10 µM | TGI (HOP-62 NSCLC): > 10 µM | TGI (HS 578T breast): > 10 µM | TGI (HT29 colon): > 10 µM | TGI (IGROV1 ovarian): > 10 µM | TGI (K-562 leukemia): 7.65 µM | TGI (LOX IMVI melanoma): > 10 µM | TGI (M14 melanoma): > 10 µM | TGI (MALME-3M melanoma): > 10 µM | TGI (MCF7 breast): > 10 µM | TGI (MDA-MB-231 breast): > 10 µM | TGI (MDA-MB-435): > 10 µM | TGI (MDA-N): > 10 µM | TGI (MOLT-4 leukemia): > 10 µM | TGI (NCI-H226 lung): > 10 µM | TGI (NCI-H23 lung): > 10 µM | TGI (NCI-H460 lung): > 10 µM | TGI (NCI-H522 lung): > 10 µM | TGI (NCI/ADR-RES ovarian): > 10 µM | TGI (OVCAR-3 ovarian): > 10 µM | TGI (OVCAR-4 ovarian): > 10 µM | TGI (OVCAR-5 ovarian): > 10 µM | TGI (OVCAR-8 ovarian): > 10 µM | TGI (PC-3 prostate): > 10 µM | TGI (RPMI-8226 leukemia): > 10 µM | TGI (RXF 393 renal): > 10 µM | TGI (SF-268 CNS): > 10 µM | TGI (SF-295 CNS): > 10 µM | TGI (SF-539 CNS): > 10 µM | TGI (SK-MEL-2 melanoma): > 10 µM | TGI (SK-MEL-28 melanoma): > 10 µM | TGI (SK-MEL-5 melanoma): > 10 µM | TGI (SK-OV-3 ovarian): > 10 µM | TGI (SN12C renal): > 10 µM | TGI (SNB-19 CNS): > 10 µM | TGI (SNB-75 CNS): > 10 µM | TGI (SR leukemia): > 10 µM | TGI (SW-620 colon): > 10 µM | TGI (T-47D breast): > 10 µM | TGI (TK-10 renal): > 10 µM | TGI (UACC-257 melanoma): > 10 µM | TGI (UO-31 renal): > 10 µM

Clc1ccc(C2=NCON=C2c2ccc(Cl)cc2)cc1
TGI (786-0 renal): 42.7 µM | TGI (A549 NSCLC): > 100 µM | TGI (ACHN renal): 54.9 µM | TGI (BT-549 breast): 41.7 µM | TGI (CAKI-1 renal): 97.8 µM | TGI (CCRF-CEM leukemia): 53.1 µM | TGI (COLO 205 colon): 29.9 µM | TGI (DU-145 prostate): > 100 µM | TGI (EKVX NSCLC): 45.3 µM | TGI (HCC-2998 colon): 32.7 µM | TGI (HCT-116 colon): 31.3 µM | TGI (HCT-15 colon): 50.6 µM | TGI (HL-60(TB) leukemia): 30.9 µM | TGI (HOP-62 NSCLC): > 100 µM | TGI (HOP-92 NSCLC): 43.5 µM | TGI (HS 578T breast): 36.2 µM | TGI (HT29 colon): 31.1 µM | TGI (K-562 leukemia): 55 µM | TGI (KM12 colon): 39.6 µM | TGI (LOX IMVI melanoma): 28.3 µM | TGI (MALME-3M melanoma): 27.7 µM | TGI (MCF7 breast): 85.6 µM | TGI (MDA-MB-231 breast): 43.7 µM | TGI (MDA-N): 56.5 µM | TGI (MOLT-4 leukemia): 42.9 µM | TGI (NCI-H226 lung): 32.7 µM | TGI (NCI-H23 lung): 44.3 µM | TGI (NCI-H460 lung): 40.6 µM | TGI (NCI/ADR-RES ovarian): 71.2 µM | TGI (OVCAR-3 ovarian): 46.6 µM | TGI (OVCAR-4 ovarian): > 100 µM | TGI (OVCAR-5 ovarian): 90.7 µM | TGI (OVCAR-8 ovarian): 88.7 µM | TGI (PC-3 prostate): 68.2 µM | TGI (RPMI-8226 leukemia): 40.6 µM | TGI (RXF 393 renal): 44.8 µM | TGI (SF-268 CNS): 57.7 µM | TGI (SF-295 CNS): 49.4 µM | TGI (SF-539 CNS): 35.5 µM | TGI (SK-MEL-2 melanoma): 46.1 µM | TGI (SK-MEL-5 melanoma): 30.3 µM | TGI (SK-OV-3 ovarian): 47.1 µM | TGI (SN12C renal): 35.2 µM | TGI (SNB-19 CNS): > 100 µM | TGI (SNB-75 CNS): 74.2 µM | TGI (SW-620 colon): 50.1 µM | TGI (T-47D breast): 22.8 µM | TGI (TK-10 renal): 66.3 µM | TGI (U251 CNS): 40.1 µM | TGI (UACC-257 melanoma): 61.4 µM | TGI (UACC-62 melanoma): 37.8 µM | TGI (UO-31 renal): 40.7 µM

COc1cc2c(cc1OC)C(=O)N(c1ccc(OCCN3CCCC3)cc1)C2=O
TGI (786-0 renal): > 100 µM | TGI (A498 renal): > 100 µM | TGI (A549 NSCLC): > 100 µM | TGI (ACHN renal): > 100 µM | TGI (BT-549 breast): > 100 µM | TGI (CAKI-1 renal): > 100 µM | TGI (CCRF-CEM leukemia): > 100 µM | TGI (COLO 205 colon): > 100 µM | TGI (DU-145 prostate): > 100 µM | TGI (EKVX NSCLC): > 100 µM | TGI (HCC-2998 colon): > 100 µM | TGI (HCT-116 colon): > 100 µM | TGI (HCT-15 colon): > 100 µM | TGI (HL-60(TB) leukemia): > 100 µM | TGI (HOP-62 NSCLC): > 100 µM | TGI (HOP-92 NSCLC): > 100 µM | TGI (HS 578T breast): > 100 µM | TGI (HT29 colon): > 100 µM | TGI (IGROV1 ovarian): > 100 µM | TGI (K-562 leukemia): > 100 µM | TGI (KM12 colon): > 100 µM | TGI (LOX IMVI melanoma): > 100 µM | TGI (M14 melanoma): > 100 µM | TGI (MALME-3M melanoma): > 100 µM | TGI (MCF7 breast): > 100 µM | TGI (MDA-MB-231 breast): > 100 µM | TGI (MDA-MB-435): > 100 µM | TGI (MDA-N): > 100 µM | TGI (MOLT-4 leukemia): > 100 µM | TGI (NCI-H226 lung): > 100 µM | TGI (NCI-H23 lung): > 100 µM | TGI (NCI-H460 lung): > 100 µM | TGI (NCI-H522 lung): > 100 µM | TGI (NCI/ADR-RES ovarian): > 100 µM | TGI (OVCAR-3 ovarian): > 100 µM | TGI (OVCAR-4 ovarian): > 100 µM | TGI (OVCAR-5 ovarian): > 100 µM | TGI (OVCAR-8 ovarian): > 100 µM | TGI (PC-3 prostate): > 100 µM | TGI (RPMI-8226 leukemia): > 100 µM | TGI (RXF 393 renal): > 100 µM | TGI (SF-268 CNS): > 100 µM | TGI (SF-295 CNS): > 100 µM | TGI (SF-539 CNS): > 100 µM | TGI (SK-MEL-2 melanoma): > 100 µM | TGI (SK-MEL-28 melanoma): > 100 µM | TGI (SK-MEL-5 melanoma): > 100 µM | TGI (SK-OV-3 ovarian): > 100 µM | TGI (SN12C renal): > 100 µM | TGI (SNB-19 CNS): > 100 µM | TGI (SR leukemia): > 100 µM | TGI (SW-620 colon): > 100 µM | TGI (T-47D breast): > 100 µM | TGI (TK-10 renal): > 100 µM | TGI (U251 CNS): > 100 µM | TGI (UACC-257 melanoma): > 100 µM | TGI (UACC-62 melanoma): > 100 µM
